pEC50: −log10 of the molar value.
target: LXRβ (Homo sapiens (Human), UniProt P55055); test: In vitro assay LXRβ: PathHunter NHR CHO cells, LXRβ / Steroid Receptor Co-activator Peptide enzyme fragment complementation; type: cell-based; conditions: PathHunter NHR CHO cells, full-length human LXRβ and SRCP, chemiluminescent signal; read-out: LXRβ PPI
Outline: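 Enzyme fragment complementation read-out: CHO cells stably expressing ProLink-tagged full-length human LXRβ plus nuclear enzyme acceptor–SRCP fusion, seeded and held overnight at 37° C. Medium with charcoal-dextran filtered serum; final vehicle 1%. Chemiluminescence measured after signal generation.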

LXRβ, sequence (P55055 whole entry, the tested form may be a part): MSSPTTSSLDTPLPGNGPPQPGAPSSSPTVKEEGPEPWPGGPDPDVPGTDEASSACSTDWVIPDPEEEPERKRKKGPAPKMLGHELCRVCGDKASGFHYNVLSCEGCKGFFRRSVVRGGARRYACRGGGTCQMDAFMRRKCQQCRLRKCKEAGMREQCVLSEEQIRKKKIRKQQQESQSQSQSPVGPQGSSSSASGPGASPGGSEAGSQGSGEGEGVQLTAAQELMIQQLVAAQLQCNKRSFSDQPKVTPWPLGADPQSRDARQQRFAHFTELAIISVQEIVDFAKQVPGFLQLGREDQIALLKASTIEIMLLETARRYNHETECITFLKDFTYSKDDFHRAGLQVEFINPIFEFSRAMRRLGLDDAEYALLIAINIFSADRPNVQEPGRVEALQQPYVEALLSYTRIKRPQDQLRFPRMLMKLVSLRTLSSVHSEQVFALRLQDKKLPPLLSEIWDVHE

SMILES	pEC50
C[C@H](CCC(=O)N1CCC(Oc2cccnc2)CC1)[C@H]1CC[C@H]2[C@@H]3CC=C4C[C@@H](O)CC[C@]4(C)[C@H]3CC[C@]12C [Example 219, (R)-4-((3S,8S,9S,10R,13R,14S,17R)-3-hydroxy-10,13-dimethyl-2,3,4,7,8,9,10,11,12,13,14,15,16,17-tetradecahydro-1H-cyclopenta[a]phenanthren-17-yl)-1-(4-(pyridin-3-yloxy)piperidin-1-yl)pentan-1-one]	< 5.00
C[C@H](CCc1ccnnc1)[C@H]1CC[C@H]2[C@@H]3CC=C4C[C@@H](O)CC[C@]4(C)[C@H]3CC[C@]12C [Example 170, (1R,3aS,3bS,7S,9aR,9bS,11aR)-9a,11a-dimethyl-1-[(2R)-4-(pyridazin-4-yl)butan-2-yl]-1H,2H,3H,3aH,3bH,4H,6H,7H,8H,9H,9aH,9bH,10H,11H,11aH-cyclopenta[a]phenanthren-7-ol]	< 5.00
C[C@H](CCC(=O)N1CCC(OC(F)F)CC1)[C@H]1CC[C@H]2[C@@H]3CC=C4C[C@@H](O)CC[C@]4(C)[C@H]3CC[C@]12C [Example 252, (R)-1-(4-(difluoromethoxy)piperidin-1-yl)-4-((3S,8S,9S,10R,13R,14S,17R)-3-hydroxy-10,13-dimethyl-2,3,4,7,8,9,10,11,12,13,14,15,16,17-tetradecahydro-1H-cyclopenta[a]phenanthren-17-yl)pentan-1-one]	< 5.00
CON(C(=O)CC[C@@H](C)[C@H]1CC[C@H]2[C@@H]3CC=C4C[C@@H](O)CC[C@]4(C)[C@H]3CC[C@]12C)C(C)C [Example 15, (R)-4-((3S,8S,9S,10R,13R,14S,17R)-3-hydroxy-10,13-dimethyl-2,3,4,7,8,9,10,11,12,13,14,15,16,17-tetradecahydro-1H-cyclopenta[a]phenanthren-17-yl)-N-isopropyl-N-methoxypentanamide]	5.00 to 6.00
CON(C)C(=O)[C@H](C)C[C@@H](C)[C@H]1CC[C@H]2[C@@H]3CC=C4C[C@@H](O)CC[C@]4(C)[C@H]3CC[C@]12C [Example 141, (2R,4R)-4-[(1R,3aS,3bS,7S,9aR,9bS,11aR)-7-hydroxy-9a,11a-dimethyl-2,3,3a,3b,4,6,7,8,9,9a,9b,10,11,11a-tetradecahydro-1H-cyclopenta[a]phenanthren-1-yl]-N-methoxy-N,2-dimethylpentanamide]	< 5.00
COCCCON(C)C(=O)CC[C@@H](C)[C@H]1CC[C@H]2[C@@H]3CC=C4C[C@@H](O)CC[C@]4(C)[C@H]3CC[C@]12C [Example 31, (R)-4-((3S,8S,9S,10R,13R,14S,17R)-3-hydroxy-10,13-dimethyl-2,3,4,7,8,9,10,11,12,13,14,15,16,17-tetradecahydro-1H-cyclopenta[a]phenanthren-17-yl)-N-(3-methoxypropoxy)-N-methylpentanamide]	5.00 to 6.00
CNS(=O)(=O)C1CCN(C(=O)CC[C@@H](C)[C@H]2CC[C@H]3[C@@H]4CC=C5C[C@@H](O)CC[C@]5(C)[C@H]4CC[C@]23C)CC1 [Example 291, 1-[(4R)-4-[(1R,3aS,3bS,7S,9aR,9bS,11aR)-7-hydroxy-9a,11a-dimethyl-1H,2H,3H,3aH,3bH,4H,6H,7H,8H,9H,9aH,9bH,10H,11H,11aH-cyclopenta[a]phenanthren-1-yl]pentanoyl]-N-methylpiperidine-4-sulfonamide]	< 5.00
CNc1nccc(N2CCN(C(=O)CC[C@@H](C)[C@H]3CC[C@H]4[C@@H]5CC=C6C[C@@H](O)CC[C@]6(C)[C@H]5CC[C@]34C)CC2)n1 [Example 561, (R)-4-((3S,8S,9S,10R,13R,14S,17R)-3-hydroxy-10,13-dimethyl-2,3,4,7,8,9,10,11,12,13,14,15,16,17-tetradecahydro-1H-cyclopenta[a]phenanthren-17-yl)-1-(4-(2-(methylamino)pyrimidin-4-yl)piperazin-1-yl)pentan-1-one]	< 5.00
C[C@H](CCC(=O)N1CCN(C(=O)C2CC2)CC1)[C@H]1CC[C@H]2[C@@H]3CC=C4C[C@@H](O)CC[C@]4(C)[C@H]3CC[C@]12C [Example 314, (4R)-4-[(1R,3aS,3bS,7S,9aR,9bS,11aR)-7-hydroxy-9a,11a-dimethyl-1H,2H,3H,3aH,3bH,4H,6H,7H,8H,9H,9aH,9bH,10H,11H,11aH-cyclopenta[a]phenanthren-1-yl]-1-(4-cyclopropanecarbonylpiperazin-1-yl)pentan-1-one]	< 5.00
CCCON(C)C(=O)CC[C@@H](C)[C@H]1CC[C@H]2[C@@H]3CC=C4C[C@@H](O)CC[C@]4(C)[C@H]3CC[C@]12C [Example 12, (R)-4-((3S,8S,9S,10R,13R,14S,17R)-3-hydroxy-10,13-dimethyl-2,3,4,7,8,9,10,11,12,13,14,15,16,17-tetradecahydro-1H-cyclopenta[a]phenanthren-17-yl)-N-methyl-N-propoxypentanamide]	6.00 to 6.60
COCCNC(=O)OC[C@@H](C)[C@H]1CC[C@H]2[C@@H]3CC=C4C[C@@H](O)CC[C@]4(C)[C@H]3CC[C@]12C [Example 460, (2S)-2-[(1R,3aS,3bS,7S,9aR,9bS,11aS)-7-hydroxy-9a,11a-dimethyl-1H,2H,3H,3aH,3bH,4H,6H,7H,8H,9H,9aH,9bH,10H,11H,11aH-cyclopenta[a]phenanthren-1-yl]propyl N-(2-methoxyethyl)carbamate]	< 5.00
C[C@H](CCC(=O)N1O[C@@H]2C[C@H]1[C@@H](O)[C@H]2O)[C@H]1CC[C@H]2[C@@H]3CC=C4C[C@@H](O)CC[C@]4(C)[C@H]3CC[C@]12C [Example 55, (R)-1-((1R,4S,5R,6R)-5,6-dihydroxy-2-oxa-3-azabicyclo[2.2.1]heptan-3-yl)-4-((3S,8S,9S,10R,13R,14S,17R)-3-hydroxy-10,13-dimethyl-2,3,4,7,8,9,10,11,12,13,14,15,16,17-tetradecahydro-1H-cyclopenta[a]phenanthren-17-yl)pentan-1-one]	< 5.00
C[C@H](CCC(=O)N1CCN(c2cccnc2)CC1)[C@H]1CC[C@H]2[C@@H]3CC=C4C[C@@H](O)CC[C@]4(C)[C@H]3CC[C@]12C [Example 306, (4R)-4-[(1R,3aS,3bS,7S,9aR,9bS,11aR)-7-hydroxy-9a,11a-dimethyl-1H,2H,3H,3aH,3bH,4H,6H,7H,8H,9H,9aH,9bH,10H,11H,11aH-cyclopenta[a]phenanthren-1-yl]-1-[4-(pyridin-3-yl)piperazin-1-yl]pentan-1-one]	< 5.00
C[C@H](CCC(=O)N1CCC(Oc2ccncc2)CC1)[C@H]1CC[C@H]2[C@@H]3CC=C4C[C@@H](O)CC[C@]4(C)[C@H]3CC[C@]12C [Example 301, (4R)-4-[(1R,3aS,3bS,7S,9aR,9bS,11aR)-7-hydroxy-9a,11a-dimethyl-1H,2H,3H,3aH,3bH,4H,6H,7H,8H,9H,9aH,9bH,10H,11H,11aH-cyclopenta[a]phenanthren-1-yl]-1-[4-(pyridin-4-yloxy)piperidin-1-yl]pentan-1-one]	< 5.00
C[C@H](CCC(=O)N1CCN(Cc2cnn(C)c2)CC1)[C@H]1CC[C@H]2[C@@H]3CC=C4C[C@@H](O)CC[C@]4(C)[C@H]3CC[C@]12C [Example 223, (R)-4-((3S,8S,9S,10R,13R,14S,17R)-3-hydroxy-10,13-dimethyl-2,3,4,7,8,9,10,11,12,13,14,15,16,17-tetradecahydro-1H-cyclopenta[a]phenanthren-17-yl)-1-(4-((1-methyl-1H-pyrazol-4-yl)methyl)piperazin-1-yl)pentan-1-one]	< 5.00
C[C@H](CCC(=O)N1CCC[C@H](Oc2ccncn2)C1)[C@H]1CC[C@H]2[C@@H]3CC=C4C[C@@H](O)CC[C@]4(C)[C@H]3CC[C@]12C [Example 218, (R)-4-((3S,8S,9S,10R,13R,14S,17R)-3-hydroxy-10,13-dimethyl-2,3,4,7,8,9,10,11,12,13,14,15,16,17-tetradecahydro-1H-cyclopenta[a]phenanthren-17-yl)-1-((S)-3-(pyrimidin-4-yloxy)piperidin-1-yl)pentan-1-one]	6.00 to 6.60
C[C@H](CCC(=O)N1CC(C)(C)[C@@H]2COC[C@@H]21)[C@H]1CC[C@H]2[C@@H]3CC=C4C[C@@H](O)CC[C@]4(C)[C@H]3CC[C@]12C [Example 138, (4R)-1-(3,3-dimethylhexahydro-1H-furo[3,4-b]pyrrol-1-yl)-4-((3S,8S,9S,10R,13R,14S,17R)-3-hydroxy-10,13-dimethyl-2,3,4,7,8,9,10,11,12,13,14,15,16,17-tetradecahydro-1H-cyclopenta[a]phenanthren-17-yl)pentan-1-one]	6.00 to 6.60
C[C@H](CCC(=O)N1CCC(CNS(=O)(=O)C(F)(F)F)CC1)[C@H]1CC[C@H]2[C@@H]3CC=C4C[C@@H](O)CC[C@]4(C)[C@H]3CC[C@]12C [Example 231, 1,1,1-trifluoro-N-((1-((R)-4-((3S,8S,9S,10R,13R,14S,17R)-3-hydroxy-10,13-dimethyl-2,3,4,7,8,9,10,11,12,13,14,15,16,17-tetradecahydro-1H-cyclopenta[a]phenanthren-17-yl)pentanoyl)piperidin-4-yl)methyl)methanesulfonamide]	< 5.00
C[C@H](CCC(=O)N1CCN(c2ccccn2)CC1)[C@H]1CC[C@H]2[C@@H]3CC=C4C[C@@H](O)CC[C@]4(C)[C@H]3CC[C@]12C [Example 307, (R)-4-((3S,8S,9S,10R,13R,14S,17R)-3-hydroxy-10,13-dimethyl-2,3,4,7,8,9,10,11,12,13,14,15,16,17-tetradecahydro-1H-cyclopenta[a]phenanthren-17-yl)-1-(4-(pyridin-2-yl)piperazin-1-yl)pentan-1-one]	< 5.00
C[C@H](CCC(=O)N(C)C)[C@H]1CC[C@H]2[C@@H]3CC=C4C[C@@H](O)C[C@H](O)[C@]4(C)[C@H]3CC[C@]12C [Example 123, (R)-4-((1S,3R,8S,9S,10R,13R,14S,17R)-1,3-dihydroxy-10,13-dimethyl-2,3,4,7,8,9,10,11,12,13,14,15,16,17-tetradecahydro-1H-cyclopenta[a]phenanthren-17-yl)-N,N-dimethylpentanamide]	5.00 to 6.00

— patent US20230340011A1 (Asteroid Therapeutics, priority 2022, published 2023)
